{"source": "ChEMBL document CHEMBL1201862", "about": "“PubChem BioAssay data set” (2004)", "key": {"[1]": {"biological_target": "T1, Ubiquitin-conjugating enzyme E2 N (Homo sapiens, UniProt P61088)", "T1 sequence (P61088 whole entry)": "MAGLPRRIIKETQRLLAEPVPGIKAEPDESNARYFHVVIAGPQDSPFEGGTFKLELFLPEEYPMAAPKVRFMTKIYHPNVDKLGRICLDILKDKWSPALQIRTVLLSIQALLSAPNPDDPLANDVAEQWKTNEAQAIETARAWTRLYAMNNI", "assay_type": "functional"}, "Cytochrome P450 3A4": {"biological_target": "Cytochrome P450 3A4 (Homo sapiens, UniProt P08684)", "sequence (P08684 whole entry)": "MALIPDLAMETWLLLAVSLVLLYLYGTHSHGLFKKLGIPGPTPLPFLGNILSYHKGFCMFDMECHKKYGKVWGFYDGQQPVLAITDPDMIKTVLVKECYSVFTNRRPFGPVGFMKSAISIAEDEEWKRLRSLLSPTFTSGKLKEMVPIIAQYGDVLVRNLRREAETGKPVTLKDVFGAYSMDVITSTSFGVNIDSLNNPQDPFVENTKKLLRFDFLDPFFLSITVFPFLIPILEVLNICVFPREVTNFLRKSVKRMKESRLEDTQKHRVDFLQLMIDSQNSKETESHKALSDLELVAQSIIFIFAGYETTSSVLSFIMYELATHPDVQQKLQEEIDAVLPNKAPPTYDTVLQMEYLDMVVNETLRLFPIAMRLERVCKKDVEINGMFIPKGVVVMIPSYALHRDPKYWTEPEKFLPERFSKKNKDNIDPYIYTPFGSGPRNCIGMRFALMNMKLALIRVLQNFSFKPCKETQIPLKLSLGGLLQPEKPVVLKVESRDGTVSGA"}, "Cytochrome P450 2D6": {"biological_target": "Cytochrome P450 2D6 (Homo sapiens, UniProt P10635)", "sequence (P10635 whole entry)": "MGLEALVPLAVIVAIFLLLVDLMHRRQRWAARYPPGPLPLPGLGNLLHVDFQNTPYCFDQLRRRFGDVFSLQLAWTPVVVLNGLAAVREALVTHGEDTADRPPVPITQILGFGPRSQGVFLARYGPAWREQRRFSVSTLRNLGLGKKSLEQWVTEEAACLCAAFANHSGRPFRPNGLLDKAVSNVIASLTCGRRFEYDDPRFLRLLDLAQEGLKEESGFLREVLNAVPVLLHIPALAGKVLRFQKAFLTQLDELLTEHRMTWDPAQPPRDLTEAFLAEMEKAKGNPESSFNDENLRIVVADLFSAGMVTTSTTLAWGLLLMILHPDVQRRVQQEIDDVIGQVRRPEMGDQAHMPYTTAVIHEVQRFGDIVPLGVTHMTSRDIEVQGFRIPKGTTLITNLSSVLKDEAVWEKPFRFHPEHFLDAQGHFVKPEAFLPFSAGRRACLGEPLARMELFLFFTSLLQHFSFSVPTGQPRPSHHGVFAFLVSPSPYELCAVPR"}, "[2]": {"biological_target": "T2, Heat shock factor protein 1 (Mus musculus, UniProt P38532)", "T2 sequence (P38532 whole entry)": "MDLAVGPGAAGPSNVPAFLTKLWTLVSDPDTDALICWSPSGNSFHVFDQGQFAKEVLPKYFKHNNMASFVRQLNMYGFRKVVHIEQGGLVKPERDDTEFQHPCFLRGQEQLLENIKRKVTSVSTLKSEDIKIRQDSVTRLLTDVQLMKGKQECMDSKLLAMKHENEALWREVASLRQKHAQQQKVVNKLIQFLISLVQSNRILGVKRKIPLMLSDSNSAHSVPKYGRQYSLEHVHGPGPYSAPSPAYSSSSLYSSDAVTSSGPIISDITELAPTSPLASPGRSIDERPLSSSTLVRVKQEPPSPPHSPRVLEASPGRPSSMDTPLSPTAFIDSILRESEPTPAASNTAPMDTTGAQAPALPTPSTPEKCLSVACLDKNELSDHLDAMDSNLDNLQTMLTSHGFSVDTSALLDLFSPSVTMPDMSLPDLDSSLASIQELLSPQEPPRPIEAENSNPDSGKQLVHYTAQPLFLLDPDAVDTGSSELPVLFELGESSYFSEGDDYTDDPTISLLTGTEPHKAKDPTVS", "assay": "enhancement of HSF1-driven luciferase signal – cell-based, NIH3T3, luminescence, dose retest, confirmation (AID 435004);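 further: stress induced by proteasome inhibitor MG132 added 30 min after compound; actives raise luminescence as potentiators of the MG132 stress response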", "assay_type": "functional"}, "cells [3]": {"assay": "cells", "assay_type": "functional, cell-based"}, "cells [4]": {"assay": "cells", "assay_type": "functional, cell-based", "remark": "listed apart in the source"}, "[5]": {"assay": "Luminescence Cell-Based Dose Response HTS to Identify Inhibitors of 5'UTR Stem-Loop Driven Prion Protein mRNA Translation in H4 Neuroglioblastoma Cells. [Related pubchem assays: 1827 (Project Summary), 1813 (Primary HTS)]", "assay_type": "functional"}, "Streptococcus": {"tested_on": "Streptococcus", "assay": "GAS UMAA2166 growth inhibition – luminescence, BacTiterGlo, counter-screen for streptokinase expression inhibitor project, dose response (AID 1915);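 further: potency for reduction of bacterial viability or growth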", "assay_type": "functional, organism-based"}, "Vero": {"tested_on": "Vero", "assay": "cells", "assay_type": "functional", "conditions": "Chlorocebus sabaeus"}, "Streptokinase A": {"biological_target": "T3, Streptokinase A (Streptococcus pyogenes serotype M1, UniProt P10520)", "T3 sequence (P10520 whole entry)": "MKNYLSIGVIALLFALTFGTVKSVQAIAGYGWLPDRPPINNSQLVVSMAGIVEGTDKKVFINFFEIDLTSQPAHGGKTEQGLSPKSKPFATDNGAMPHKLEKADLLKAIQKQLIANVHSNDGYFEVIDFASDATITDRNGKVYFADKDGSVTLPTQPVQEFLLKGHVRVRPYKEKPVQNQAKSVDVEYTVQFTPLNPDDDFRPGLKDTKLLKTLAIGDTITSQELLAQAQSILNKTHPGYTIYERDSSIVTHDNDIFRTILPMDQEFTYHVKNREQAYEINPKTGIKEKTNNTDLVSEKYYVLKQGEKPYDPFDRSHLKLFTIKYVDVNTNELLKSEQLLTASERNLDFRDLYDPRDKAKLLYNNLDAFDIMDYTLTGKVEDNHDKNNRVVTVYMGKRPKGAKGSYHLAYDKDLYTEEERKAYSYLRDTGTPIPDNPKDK", "assay": "viability-normalized secreted streptokinase activity reduction – plasminogen activation absorbance, OD405, dose response (AID 1914)", "assay_type": "functional, Streptococcus pyogenes M1 GAS"}, "[6]": {"tested_on": "Streptococcus sp. 'group A'", "assay": "Streptococcus pyogenes SK(-)GAS viability under kanamycin – luminescence, BacTiterGlo, confirmation, counter-screen for streptokinase expression inhibitor project, dose response (AID 1900)", "assay_type": "functional, organism-based"}, "[7]": {"assay": "DRD fibroblast viability loss – cell-based, non-viral oncogenic, luminescence, dose response (AID 1934)", "assay_type": "functional", "conditions": "Homo sapiens"}, "BJ [8]": {"tested_on": "BJ", "assay": "cells", "assay_type": "functional, cell-based", "conditions": "Homo sapiens"}, "BJ [9]": {"tested_on": "BJ", "assay": "BJ-TERT fibroblast viability loss – cell-based, RAS-independent, luminescence, dose response (AID 1933)", "assay_type": "functional", "conditions": "Homo sapiens"}, "BJ [10]": {"tested_on": "BJ", "assay": "BJ-TERT-LT-ST fibroblast viability loss – cell-based, RAS-independent, luminescence, dose response (AID 1935);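 further: BJ fibroblasts immortalized with TERT plus LT and ST oncogenes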", "assay_type": "functional", "conditions": "Homo sapiens"}, "[11]": {"assay": "luciferase reporter signal suppression in cells – H4 neuroglioma cells, luminescence, dose response (AID 1990)", "assay_type": "functional, cell-based"}, "[12]": {"assay": "alpha-synuclein stem-loop luciferase translation blockers – H4 neuroglioma cells, luminescence, confirmation (AID 1988)", "assay_type": "functional, cell-based"}, "[13]": {"biological_target": "T4, Polyadenylate-binding protein 1 (Homo sapiens, UniProt P11940)", "T4 sequence (P11940 whole entry)": "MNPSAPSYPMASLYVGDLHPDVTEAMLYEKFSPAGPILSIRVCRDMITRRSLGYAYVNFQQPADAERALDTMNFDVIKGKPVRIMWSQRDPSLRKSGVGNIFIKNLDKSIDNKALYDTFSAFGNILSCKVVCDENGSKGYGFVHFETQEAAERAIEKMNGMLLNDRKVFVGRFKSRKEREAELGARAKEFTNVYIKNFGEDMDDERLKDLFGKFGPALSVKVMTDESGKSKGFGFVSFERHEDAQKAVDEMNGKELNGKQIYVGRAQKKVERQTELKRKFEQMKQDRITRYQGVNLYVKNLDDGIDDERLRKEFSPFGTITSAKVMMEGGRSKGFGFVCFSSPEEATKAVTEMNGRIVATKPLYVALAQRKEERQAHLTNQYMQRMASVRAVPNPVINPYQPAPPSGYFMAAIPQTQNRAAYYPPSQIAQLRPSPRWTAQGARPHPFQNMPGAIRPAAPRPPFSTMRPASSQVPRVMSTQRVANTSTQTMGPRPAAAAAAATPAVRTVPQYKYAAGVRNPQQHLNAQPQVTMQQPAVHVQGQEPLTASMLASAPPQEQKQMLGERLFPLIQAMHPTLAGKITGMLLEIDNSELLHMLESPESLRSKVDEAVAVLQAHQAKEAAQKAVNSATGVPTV", "assay": "MLLE binding blockers, Cy5 peptide tracer – biochemical, fluorescence polarization, Cy5-PAM2 peptide, secondary, miRNA deadenylation inhibitor project, dose response (AID 602260)", "assay_type": "functional", "conditions": "read-out: IC50_Mean"}, "[14]": {"biological_target": "T4, Polyadenylate-binding protein 1", "assay": "MLLE domain peptide-binding blockers, IC50 – biochemical, fluorescence polarization, FITC-PAM2 peptide, dose response (AID 602259)", "assay_type": "functional", "conditions": "read-out: IC50_Mean"}, "[15]": {"assay": "viability of uninfected HEp-2 cells – cell-based, HTS, cytotoxicity control for RSV inhibitor project, dose response (AID 2410)", "assay_type": "functional", "conditions": "human respiratory syncytial virus"}}, "note": "Activity calls are given as the source filed them. For most assays here, no stated cut-off is given here; in the data, actives have a measured EC50 and inactives only a lower limit."}
{"smiles": "CCOC(=O)N1CCN(C(=O)c2ccc3c(c2)N(Cc2ccccc2)CCS3)CC1", "values": [{"measurement": "IC50", "setting": "[1]", "value": "> 20 µM (inactive)"}]}
{"smiles": "Cc1cnc(CNc2nc(-c3ccccc3Cl)nc3ccccc23)cn1", "values": [{"measurement": "AC50", "setting": "Cytochrome P450 3A4", "value": "7.94 µM (inconclusive)"}, {"measurement": "AC50", "setting": "Cytochrome P450 2D6", "value": "25.1 µM (inconclusive)"}]}
{"smiles": "O=[N+]([O-])c1cccc(-c2ccc3nnc(SCc4ccccn4)n3n2)c1", "values": [{"measurement": "EC50", "setting": "[2]", "value": "> 260 µM (inactive)"}]}
{"smiles": "Cc1cc(NC(=O)c2ccccc2)n(-c2nc3ccccc3[nH]2)n1", "values": [{"measurement": "EC50", "setting": "cells [3]", "value": "63.9 µM (active)"}, {"measurement": "EC50", "setting": "cells [4]", "value": "> 350 µM (not active)"}]}
{"smiles": "CSc1nc(C)cc(Nc2ccc(O)c(CN3CCCCC3)c2)n1", "values": [{"measurement": "AC50", "setting": "Cytochrome P450 2D6", "value": "3.16 µM (inconclusive)"}]}
{"smiles": "Cc1ccc(Nc2nc(CSc3nnc(-c4ccncc4)n3C)cs2)cc1", "values": [{"measurement": "EC50", "setting": "cells [3]", "value": "> 350 µM (not active)"}, {"measurement": "EC50", "setting": "cells [4]", "value": "> 350 µM (not active)"}]}
{"smiles": "CC1=CC(=O)C=C(C)C1=NOC(=O)/C=C\\c1ccccc1", "values": [{"measurement": "EC50", "setting": "[2]", "value": "> 260 µM (inactive)"}]}
{"smiles": "COc1ccc(-c2c/c(=N\\c3nc(-c4ccccc4)c(C)s3)c3ccccc3o2)cc1O", "values": [{"measurement": "EC50", "setting": "[5]", "value": "5.8 µM (active)"}, {"measurement": "EC50", "setting": "Streptococcus", "value": "> 150 µM (not active)"}, {"measurement": "CC50", "setting": "Vero", "value": "3.22 µM (active)"}, {"measurement": "EC50", "setting": "Streptokinase A", "value": "15.5 µM (active)"}, {"measurement": "EC50", "setting": "[6]", "value": "4.5 µM (active)"}, {"measurement": "EC50", "setting": "[7]", "value": "1.9 µM (active)"}, {"measurement": "EC50", "setting": "BJ [8]", "value": "3.22 µM (active)"}, {"measurement": "EC50", "setting": "BJ [9]", "value": "1.71 µM (active)"}, {"measurement": "EC50", "setting": "BJ [10]", "value": "1.82 µM (active)"}, {"measurement": "EC50", "setting": "[11]", "value": "5.76 µM (inconclusive)"}, {"measurement": "EC50", "setting": "[12]", "value": "7.32 µM (active)"}]}
{"smiles": "COc1cc(NC(=O)C2=C(N3CCOCC3)/C(=C\\c3ccc(Br)cc3)CC2)cc(OC)c1OC", "values": [{"measurement": "EC50", "setting": "[2]", "value": "> 260 µM (inactive)"}]}
{"smiles": "Cc1cc(C=O)c(C)n1-c1ccc(NC2CCCC2)c([N+](=O)[O-])c1", "values": [{"measurement": "AC50", "setting": "Cytochrome P450 2D6", "value": "8.91 µM (inconclusive)"}]}
{"smiles": "O=C(CCCN1C(=O)CCC1=O)Nc1ccccc1F", "values": [{"measurement": "IC50", "setting": "[13]", "value": "> 66 µM (inactive)"}, {"measurement": "IC50", "setting": "[14]", "value": "> 66 µM (inactive)"}]}
{"smiles": "CC1=NCCc2c1[nH]c1cc(O)ccc21", "values": [{"measurement": "AC50", "setting": "Cytochrome P450 2D6", "value": "7.94 µM (inconclusive)"}]}
{"smiles": "CCN1CCN(S(=O)(=O)c2ccc(Cl)nc2)CC1", "values": [{"measurement": "AC50", "setting": "Cytochrome P450 2D6", "value": "12.6 µM (inconclusive)"}]}
{"smiles": "CC(C)(C)c1ccc(C(=O)N/N=C/c2ccccn2)cc1", "values": [{"measurement": "EC50", "setting": "Streptococcus", "value": "29.8 µM (active)"}, {"measurement": "EC50", "setting": "Streptokinase A", "value": "> 150 µM (not active)"}, {"measurement": "EC50", "setting": "[6]", "value": "9.57 µM (active)"}, {"measurement": "IC50", "setting": "[1]", "value": "> 20 µM (inactive)"}]}
{"smiles": "CCNc1nc(Cl)nc(NNC(=O)C(C)Oc2ccccc2)n1", "note": "(configuration not stated)", "values": [{"measurement": "EC50", "setting": "cells [3]", "value": "47 µM (active)"}, {"measurement": "EC50", "setting": "cells [4]", "value": "> 350 µM (not active)"}]}
{"smiles": "O=C(Nc1ccc2c(c1)CCCN2C(=O)c1ccccc1)c1ccccc1Br", "values": [{"measurement": "CC50", "setting": "Vero", "value": "> 25 µM (active)"}, {"measurement": "CC50", "setting": "[15]", "value": "10.5 µM (active)"}]}
{"smiles": "COc1nccc(C(F)(F)F)c1C(=O)NC(=O)Nc1ccccc1", "values": [{"measurement": "EC50", "setting": "cells [3]", "value": "> 350 µM (not active)"}, {"measurement": "EC50", "setting": "cells [4]", "value": "> 350 µM (not active)"}]}
{"smiles": "CCOC(=O)c1c(C)sc2c1N(C(=O)CN(CC)CC)c1ccccc1S2", "values": [{"measurement": "EC50", "setting": "[2]", "value": "> 260 µM (inactive)"}]}
{"smiles": "Cc1nnc(SCc2cccc(Cl)c2)n(N)c1=O", "values": [{"measurement": "EC50", "setting": "cells [3]", "value": "> 350 µM (not active)"}, {"measurement": "EC50", "setting": "cells [4]", "value": "> 350 µM (not active)"}]}
{"smiles": "COc1cccc(Cn2c(=O)cnc3cnc(OCc4ccccc4)nc32)c1", "values": [{"measurement": "AC50", "setting": "Cytochrome P450 2D6", "value": "39.8 µM (inconclusive)"}]}
{"smiles": "Cc1cccc(C(=O)O/N=C(\\N)c2ccc(Cl)cc2)c1", "values": [{"measurement": "EC50", "setting": "cells [3]", "value": "16.7 µM (active)"}, {"measurement": "EC50", "setting": "cells [4]", "value": "> 350 µM (not active)"}]}
{"smiles": "Cc1cccc(N(C(=O)c2snc(C(N)=O)c2N)C(C(=O)NC2CCCC2)c2ccc(C)o2)c1", "note": "(configuration not stated)", "values": [{"measurement": "IC50", "setting": "[1]", "value": "> 20 µM (inactive)"}]}
{"smiles": "COC(=O)c1sc(N)c(C(=O)OC)c1CSc1nc2sc3c(c2c(=O)n1C)CCC3", "values": [{"measurement": "EC50", "setting": "[2]", "value": "> 260 µM (inactive)"}]}
{"smiles": "Cc1ccc(Cc2cnc(NC(=O)c3cccs3)s2)cc1", "values": [{"measurement": "AC50", "setting": "Cytochrome P450 2D6", "value": "15.8 µM (inconclusive)"}]}
{"smiles": "Cn1c(Cn2nnc3ccccc32)nnc1SCC(=O)c1ccccc1F", "values": [{"measurement": "EC50", "setting": "[2]", "value": "> 260 µM (inactive)"}]}
